Reference: patent EP4678639A1, “SALT OF BENZIMIDAZOLE DERIVATIVE” (JW Pharmaceutical Corporation, priority 2023, dated 2024)
Where a name gives a salt, the structure may show the parent alone.

Legend:
[1] = water
Method: (§1) The measurement was conducted according to the method described under "Solubility" in the General Notices of Appendix 1 of the 12th Edition of the Korean Pharmacopoeia. Each solubility was expressed by measuring the solubility of the acid addition salt itself, without conversion to the tegoprazan freebase.

[2] = Solid-state stress stability test (humidity 90 % RH); conditions: for Initial (%) Degradant / Initial (%) Total Related substances: Table 9, initial
Method: The analysis conditions are as follows.
(§2) Operation and Calculation: The blank solution, standard solution, and test solution were sequentially tested under the instrument operating conditions according to the liquid chromatography method in the General Test Methods of the 12th Edition of the Korean Pharmacopoeia, and the amount of related substances was calculated using the following equation. Amount of each related; substance (%) = (AT)/(AS) × (CS)/(CT) × (Molecular weight; of the sample)/(Molecular weight; of the standard; product) × P × (1)/(RR; F) [formula] AT = Area of each related substance peak obtained from the test solution AS = Area of the tegoprazan peak obtained from the standard solution CS = Concentration of standard solution (mg/mL) CT = Concentration of test solution (mg/mL) P = Purity/Assay/Potency (%) of standard product RRF = Relative response factor (1.0)
(§3) A solid-state stability comparative test was conducted on each of the above-mentioned prepared tegoprazan acid addition salts. The stability comparative test was conducted for 1 month under the conditions shown in Table 6 below in accordance with The International Council for Harmonisation of Technical Requirements for Pharmaceuticals for Human Use (ICH) guideline, and the purity of the acid addition salt, total related substances, and the content of degradants were measured by HPLC at the initial time point and after 1 month. Total related substances and degradants were measured according to the related substance test method (HPLC).
3) Stress Stability (humidity 90 % RH)

[3] = Solid-state stress stability test (temperature 60 °C); conditions: for Change (%) Degradant: 1 month vs initial; for Initial (%) Degradant / Initial (%) Total Related substances: Table 8, initial
Method: The analysis conditions are as follows.
as §2, §3
2) Stress Stability Test (temperature 60 °C)

[4] = Photostability test, visible light (1.2 Mlux·hr) exposure; conditions: for Change (%) Degradant: Table 11, after exposure vs initial; for Initial (%) Degradant / Initial (%) Total Related substances: Table 11, initial; for After (%) Degradant / After (%) Total Related substances: Table 11 under heading Visible Light (1.2 Mlux-hr) Exposure Test
Method: (§4) A photostability comparative test was conducted on each of the above-mentioned prepared tegoprazan acid addition salts. The test was conducted by exposing the sample to light with an energy of 200 W hr/m^2 of ultraviolet light and 1.2 Mlux hr of visible light in accordance with The International Council for Harmonisation of Technical Requirements for Pharmaceuticals for Human Use (ICH) guideline, with the samples packaged in a single PE bag and spread thinly enough to ensure exposure to the light source, taking humidity stability into consideration. The purity of the acid addition salts and the change in the amount of degradants at the initial time point and after exposure to ultraviolet light or visible light were measured by HPLC.

[5] = Photostability test, ultraviolet light (200 W·hr/m2) exposure; conditions: for After Ultraviolet Light Exposure (200 W hr/m2)(%) Degradant / After Ultraviolet Light Exposure (200 W hr/m2)(%) Total Related substances: Table 10, UV 200 W·hr/m2, PE bag; for Change (%) Degradant: Table 10, after UV exposure vs initial; for Initial (%) Degradant / Initial (%) Total Related substances: Table 10, initial
Method: as §4

[6] = Solid-state accelerated stability test (40 ± 2 °C/RH 75 ± 5 %); conditions: for After 1 Month (%) Degradant / After 1 Month (%) Total Related substances / Change (%) Degradant: 40 ± 2 °C / RH 75 ± 5 %; for Change (%) Degradant: 1 month vs initial; for Initial (%) Total Related substances / Initial (%) Degradant: Table 7, initial; for Initial (%) Degradant: degradant of Formula 4
Method: The analysis conditions are as follows.
as §2, §3

[7] = Raw material stability test versus tegoprazan freebase (60 °C or 90 % RH); type: physicochemical
[8] = in vivo; cited from earlier work
[9] = Solubility comparative test (Korean Pharmacopoeia 'Solubility'); conditions: solubility of the acid addition salt itself, without conversion to freebase
Method: as §1

SMILES | solubility / aqueous solubility [1] [µg/mL] | Initial (%) Degradant [2] [%] | Initial (%) Total Related substances [2] [%] | After 1 Month (%) Degradant ([3]; 60 °C) [%] | After 1 Month (%) Total Related substances ([3]; 60 °C) [%] | Change (%) Degradant ([3]; 60 °C) [%] | Initial (%) Degradant [3] [%] | Initial (%) Total Related substances [3] [%] | Change (%) Degradant [4] [%] | Initial (%) Degradant [4] [%] | Initial (%) Total Related substances [4] [%] | After (%) Degradant [4] [%] | After (%) Total Related substances [4] [%] | After Ultraviolet Light Exposure (200 W hr/m2)(%) Degradant [5] [%] | After Ultraviolet Light Exposure (200 W hr/m2)(%) Total Related substances [5] [%] | Change (%) Degradant [5] [%] | Initial (%) Degradant [5] [%] | Initial (%) Total Related substances [5] [%] | After 1 Month (%) Degradant [6] [%] | After 1 Month (%) Total Related substances [6] [%] | other results
Cc1nc2c(O[C@H]3CCOc4cc(F)cc(F)c43)cc(C(=O)N(C)C)cc2[nH]1 [Hemisalicylate Salt] | ≤ 1000 | 0.001 | 0.208 | 0.039 | 0.268 | 0.038 | 0.001 | 0.208 | 0.244 | 0.001 | 0.208 | 0.245 | 1.021 | 0.360 | 1.360 | 0.359 | 0.001 | 0.208 | 0.004 | 0.208 | After 1 Month (%) Total Related substances ([2]; 90 % RH, 1 month): 1.759%; Remarks ([4]; Table 11, after exposure, appearance): Discolorat ion; changes in appearance ([4]; visible light exposure): changes in appearance; Remarks ([5]; Table 10, after UV exposure, appearance): Discolorat ion; changes in appearance ([5]; ultraviolet light exposure): changes in appearance; Change (%) Degradant [6]: 0.003%; Initial (%) Total Related substances [6]: 0.208%; Initial (%) Degradant [6]: 0.001%; purity change after 1 month ([6]; accelerated stability): ≤ 0.1%
Cc1nc2c(O[C@H]3CCOc4cc(F)cc(F)c43)cc(C(=O)N(C)C)cc2[nH]1 [Maleate Salt] | ≤ 1000 | 0.027 | 0.357 | 1.248 | 6.070 | 1.221 | 0.027 | 0.357 | 0.006 | 0.027 | 0.357 | 0.033 | 0.508 | 0.032 | 0.354 | 0.005 | 0.027 | 0.357 | 0.083 | 0.679 | absorb moisture and deliquesce / melted ([2]; 90 % RH): absorb moisture and deliquesce; Remarks ([2]; 90 % RH, 1 month, state of the solid): Melted; total related substances increased after 1 month ([3]; 60 °C): ≥ 5.0%; Change (%) Degradant [6]: 0.056%; Initial (%) Total Related substances [6]: 0.357%; Initial (%) Degradant [6]: 0.027%; increase in total related substances after 1 month ([6]; accelerated stability): ≥ 0.3%
Cc1nc2cc(C(=O)N(C)C)cc(O[C@H]3CCOc4cc(F)cc(F)c43)c2[nH]1 [Tegoprazan Freebase Crystalline Form A] |  |  |  |  |  |  |  |  |  |  |  |  |  |  |  |  |  |  |  |  | change in appearance, 60 °C ([7]; 60 °C, 3 weeks): No change in appearance; change in appearance, 90 % RH ([7]; 90 % RH, 3 weeks): No change in appearance; change in appearance, Initial ([7]; initial): No change in appearance; Tmax delayed when administered after a meal compared to before a meal [8]: up to 8 hours; Solubility [9]: < 1000 µg/mL
